Laboratory results taken from ChEMBL document CHEMBL1817568, “Novel hybrids of fluconazole and furanones: design, synthesis and antifungal activity” (2011).
In brackets after ≈: the same amount, converted by molar mass. Activity calls are given as the source filed them. No cut-off for these calls is given here.

How the values were obtained:
[1] = tested on: Cryptococcus neoformans; assay: Antifungal activity against Cryptococcus neoformans ATCC 34664 at 4 ug/ml by broth dilution method; format: functional, organism-based
[2] = tested on: Aspergillus fumigatus; assay: Antifungal activity against Aspergillus fumigatus ATCC 46645 at 4 ug/ml by broth dilution method; format: functional, organism-based
[3] = tested on: Nakaseomyces glabratus; assay: Antifungal activity against Candida glabrata ATCC 90030 by broth dilution method; format: functional
[4] = tested on: Candida albicans; assay: Antifungal activity against Candida albicans ATCC 24433 by broth dilution method; format: functional
[5] = tested on: Pichia kudriavzevii; assay: Antifungal activity against Candida krusei ATCC 6258 at 4 ug/ml by broth dilution method; format: functional, organism-based
[6] = tested on: Aspergillus niger; assay: Antifungal activity against Aspergillus niger ATCC 16404 at 4 ug/ml by broth dilution method; format: functional, organism-based
[7] = tested on: Fusarium proliferatum; assay: Antifungal activity against Fusarium proliferatum ATCC 10052 at 4 ug/ml by broth dilution method; format: functional, organism-based
[8] = tested on: Candida tropicalis; assay: Antifungal activity against Candida tropicalis ATCC 750 by broth dilution method; format: functional
[9] = tested on: Pichia kudriavzevii; assay: Antifungal activity against Candida krusei ATCC 6258 by broth dilution method; format: functional
[10] = tested on: Aspergillus niger; assay: Antifungal activity against Aspergillus niger ATCC 16404 at 8 ug/ml by broth dilution method; format: functional, organism-based
[11] = tested on: Cryptococcus neoformans; assay: Antifungal activity against Cryptococcus neoformans ATCC 34664 by broth dilution method; format: functional
[12] = tested on: Fusarium proliferatum; assay: Antifungal activity against Fusarium proliferatum ATCC 10052 at 8 ug/ml by broth dilution method; format: functional, organism-based
[13] = tested on: Aspergillus fumigatus; assay: Antifungal activity against Aspergillus fumigatus ATCC 46645 at 8 ug/ml by broth dilution method; format: functional, organism-based
[14] = tested on: Fusarium proliferatum; assay: Antifungal activity against Fusarium proliferatum ATCC 10052 at 128 ug/ml by broth dilution method; format: functional, organism-based
[15] = tested on: Aspergillus niger; assay: Antifungal activity against Aspergillus niger ATCC 16404 at 128 ug/ml by broth dilution method; format: functional, organism-based
[16] = tested on: Aspergillus fumigatus; assay: Antifungal activity against Aspergillus fumigatus ATCC 46645 at 128 ug/ml by broth dilution method; format: functional, organism-based
[17] = tested on: Candida tropicalis; assay: Antifungal activity against Candida tropicalis ATCC 750 at 4 ug/ml by broth dilution method; format: functional, organism-based
[18] = tested on: Pichia kudriavzevii; assay: Antifungal activity against Candida krusei ATCC 6258 at 8 ug/ml by broth dilution method; format: functional, organism-based

SMILES | Activity [1] | Activity [2] | MIC50 [3] [mg/L] | MIC50 [4] [mg/L] | Activity [5] | Activity [6] | Activity [7] | MIC50 [8] [mg/L] | MIC50 [9] [mg/L] | Activity [10] | MIC50 [11] [mg/L] | Activity [12] | Activity [13] | Activity [14] | Activity [15] | Activity [16] | Activity [17] | Activity [18]
O=C1OCC(c2ccccc2)=C1c1ccc(OCC(O)(Cn2cncn2)c2ccc(F)cc2F)cc1 (racemic) | inactive | inactive | 0.5 (≈ 1.02 µM) | 0.5 (≈ 1.02 µM) | inactive | inactive | inactive | 2 (≈ 4.09 µM) | – | – | – | – | – | – | – | – | – | –
O=C1OCC(c2ccc(Br)cc2)=C1c1ccc(OCC(O)(Cn2cncn2)c2ccc(F)cc2F)cc1 (racemic) | – | – | 2 (≈ 3.52 µM) | 0.5 (≈ 0.88 µM) | – | – | – | 4 (≈ 7.04 µM) | 8 (≈ 14.1 µM) | inactive | 1 (≈ 1.76 µM) | inactive | inactive | – | – | – | – | –
COc1cc(C=O)ccc1OCC(O)(Cn1cncn1)c1ccc(F)cc1F (racemic) | – | – | 1 (≈ 2.57 µM) | 0.5 (≈ 1.28 µM) | – | – | – | 8 (≈ 20.5 µM) | 128 (≈ 329 µM) | – | 16 (≈ 41.1 µM) | – | – | inactive | inactive | inactive | – | –
COc1cc(C2=C(c3ccc(Br)cc3)COC2=O)ccc1OCC(O)(Cn1cncn1)c1ccc(F)cc1F (racemic) | – | inactive | 2 (≈ 3.34 µM) | 1 (≈ 1.67 µM) | inactive | inactive | inactive | 4 (≈ 6.68 µM) | – | – | 8 (≈ 13.4 µM) | – | – | – | – | – | – | –
O=C1OC(c2ccccc2)=N/C1=C\c1ccc(OCC(O)(Cn2cncn2)c2ccc(F)cc2F)cc1 (racemic) | inactive | inactive | 4 (≈ 7.96 µM) | 4 (≈ 7.96 µM) | inactive | inactive | inactive | – | – | – | – | – | – | – | – | – | inactive | –
O=C1OCC(c2ccc(F)cc2)=C1c1ccc(OCC(O)(Cn2cncn2)c2ccc(F)cc2F)cc1 (racemic) | – | – | 0.5 (≈ 0.985 µM) | 0.25 (≈ 0.493 µM) | – | – | – | 1 (≈ 1.97 µM) | 8 (≈ 15.8 µM) | inactive | 1 (≈ 1.97 µM) | inactive | inactive | – | – | – | – | –
Cc1ccc(C2=C(c3ccc(OCC(O)(Cn4cncn4)c4ccc(F)cc4F)cc3)C(=O)OC2)cc1 (racemic) | – | inactive | 1 (≈ 1.99 µM) | 0.5 (≈ 0.993 µM) | inactive | inactive | inactive | 2 (≈ 3.97 µM) | – | – | 2 (≈ 3.97 µM) | – | – | – | – | – | – | –
COc1ccc(C2=C(c3ccc(OCC(O)(Cn4cncn4)c4ccc(F)cc4F)cc3)C(=O)OC2)cc1 (racemic) | – | – | 1 (≈ 1.92 µM) | 1 (≈ 1.92 µM) | – | – | – | 4 (≈ 7.7 µM) | – | inactive | 2 (≈ 3.85 µM) | inactive | inactive | – | – | – | – | inactive
O=C1OCC(c2ccc(F)cc2F)=C1c1ccc(OCC(O)(Cn2cncn2)c2ccc(F)cc2F)cc1 (racemic) | – | – | 0.5 (≈ 0.952 µM) | 0.5 (≈ 0.952 µM) | – | – | – | 2 (≈ 3.81 µM) | 8 (≈ 15.2 µM) | inactive | 2 (≈ 3.81 µM) | inactive | inactive | – | – | – | – | –
OC(Cn1cncn1)(Cn1cncn1)c1ccc(F)cc1F [FLUCONAZOLE] | – | – | 1 (≈ 3.27 µM) | 0.25 (≈ 0.816 µM) | – | – | – | 1 (≈ 3.27 µM) | 32 (≈ 104 µM) | – | 2 (≈ 6.53 µM) | – | – | inactive | inactive | inactive | – | –
O=Cc1ccc(OCC(O)(Cn2cncn2)c2ccc(F)cc2F)cc1 (racemic) | – | – | 0.5 (≈ 1.39 µM) | 0.5 (≈ 1.39 µM) | – | – | – | 4 (≈ 11.1 µM) | 16 (≈ 44.5 µM) | – | 2 (≈ 5.57 µM) | – | – | inactive | inactive | inactive | – | –
CC1OC(=O)C(c2ccc(OCC(O)(Cn3cncn3)c3ccc(F)cc3F)cc2)=C1c1ccc(F)cc1F (racemic) | – | – | 1 (≈ 1.85 µM) | 1 (≈ 1.85 µM) | – | – | – | 8 (≈ 14.8 µM) | – | inactive | 4 (≈ 7.41 µM) | – | inactive | – | – | – | – | inactive
